Consider one compound from patent publication US12414940B2, “Method of treating malignant tumor by azabicyclic compound” (TAIHO PHARMACEUTICAL CO., LTD., priority 2018, dated 2025).

A short description of data set [1]: Quantification of plasma, tumor and retinal tissue exposure in tumor-bearing rats. Format: in vivo, F344 nude rats. The procedure:
After the administration, plasma, the retina, and tumor were collected according to a sampling schedule. The retina or tumor samples were homogenized in phosphate-buffered saline. The plasma and the homogenized samples were analyzed by liquid chromatography-tandem mass spectrometry or high-performance liquid chromatography. The pharmacokinetics of the compound 1 were calculated by use of the non-compartmental analysis method (Methods Mol Biol 2012; 929: 377-89).

A short description of data set [2]: Quantification of plasma and retinal tissue exposure after intravenous administration. The format is in vivo, F344 nude rats. As to conditions: 30 minutes and 6 hours after administration. How it is done:
Method: Compound 1 was administered to tumor-bearing F344 nude rats by intravenous administration. Plasma and the retina were collected 30 minutes and 6 hours after the administration. The retina samples were homogenized in phosphate-buffered saline. The plasma and the homogenized samples were analyzed by liquid chromatography-tandem mass spectrometry or high-performance liquid chromatography. The pharmacokinetics of the compound 1 were calculated by use of the non-compartmental analysis method (Methods Mol Biol 2012; 929: 377-89).

The subject of another data set is solid cancer patients. Nature of the data set: Phase I study in solid cancer patients: eye disorder related to treatment (ophthalmologic examination, CTCAE Ver. 4.03). The format is in vivo. The procedure:
The initial dose of Step 2 (level 1 of Step 2) was set to MTD (mg/m^2/day) of Step 1. The study was continued until the disease progressed or an intolerable adverse event occurred.
After determination of MTD for once-daily administration, administration was performed by once-daily administration, by alternate-day administration (repeated administration at cycles each involving one-day administration and one-day withdrawal period on the next day), or by a schedule involving administration for 5 consecutive days and 2-day withdrawal period, and evaluation was conducted.
In this test, ophthalmologic examination was conducted in order to evaluate eye disorder.
The ophthalmologic examination was carried out before enrollment, in the duration of administration, and during follow-up. In the duration of administration, ophthalmologic interview, visual acuity examination (corrected), intraocular pressure examination, fundus examination, slit-lamp microscopy, optical coherence tomography (OCT), and color perception examination were carried out for 21 days±1 day from the start of administration. Observation and examination before enrollment were carried out as immediately before the enrollment as possible. In addition to the determined ophthalmologic examination described above, ophthalmologic examination was appropriately carried out when eye problems were found by regular interview by clinical investigators or by declaration from patients themselves.

Data set [3] deals with patients with local progressive unresectable or metastatic GIST. Kind of data set: Study in GIST patients: progression-free survival (RECIST Guideline Version 1.1). As to conditions: 160 mg/body/day oral, 5 consecutive days and 2-day withdrawal period. The format is in vivo, human. The procedure:
Purpose: In order to evaluate the effectiveness and safety, etc. of compound 1, this study was conducted for the purpose of evaluating the effectiveness and safety, etc. of the compound 1, targeting patients with local progressive unresectable or metastatic GIST who received the administration of imatinib, sunitinib or regorafenib in the past.
From the results of the study of Example 1, this study was carried out according to a schedule involving administration for 5 consecutive days and 2-day withdrawal period. The daily dose of the compound 1 was 160 mg/body/day for oral administration. One cycle was set to 21 days. The administration of the compound 1 was continued until the end date of the clinical trial or any of predetermined criterion for discontinuation were applicable.
For the evaluation of an antitumor effect, CT scan was carried out before the start of administration, every 3 weeks for subsequent 6 weeks, every 6 weeks for subsequent 3 months, and then every 8 weeks until the end of the test. Progression-free survival (PFS) stipulated by RECIST Guideline Version 1.1 was evaluated.

The test system of the next data set is rat eye tissue. Kind of data set: Histopathological study in rat eye tissue (hematoxylin and eosin, TUNEL). Format: in vivo, Sprague-Dawley (SD) rats.
Where [4] appears, read: oral administration, tumor-bearing rats.
[5] abbreviates: rats, administered for consecutive days (Non-Patent Literature 6).
Where [6] appears, read: QD Step 1 Dose escalation, Lv. 6 (107.5 mg/m^2) n = 6.
Setting [7] is: QOD Step 2 Expansion (340 mg/body) n = 6.
The mark [8] stands for this setting: 12 mg/kg/day oral every day for 2 weeks, eyes collected 24 hours after final dose.

As to `CCc1cc(C(N)=O)ccc1-n1nc(C(C)C)c2c(-n3cnc(-c4cnn(C)c4)c3)ccnc21` [compound 1, 3-Ethyl-4-[3-(1-methylethyl)-4-[4-(1-methyl-1H-pyrazol-4-yl)-1H-imidazol-1-yl]-1H-pyrazolo[3,4-b]pyridin-1-yl]benzamide], in data set [1] (setting [4]), the “distribution in tumor, retina and plasma” value is “larger amount in tumor than in the retina and plasma”. The “time to removal from the retina” value in data set [1] (setting [4]) was ≤ 24 h. In addition, in data set [1] (setting [5]), the “time to elimination from the rat retina” value was ≤ 24 h. In addition, the “distribution in retina versus plasma” value in data set [2] was “lower in the retina than in plasma”. For the same compound, the “Eye Disorder, G2” value is recorded as 1 (14.3) n (%) in the data set on solid cancer patients (QD Step 1 Dose escalation, Lv. 1 to 5 (4.8-76.8 mg/m^2) n = 7); 2 (33.3) n (%) in the data set with solid cancer patients (setting [6]); 1 (20.0) n (%) in the data set with solid cancer patients (setting [7]); 4 (6.6) n (%) in the data set with solid cancer patients (human, in vivo). Also, the “Eye disorder, G1” value with solid cancer patients (setting [6]) is on record as 3 (50.0) n (%); in the data set on solid cancer patients (QD × 5 (5-day administration 2-day drug holiday) Step 1 Expansion (160 mg/body) n = 19), 5 (26.3) n (%); in the data set on solid cancer patients (QOD Step 2 Dose escalation, Lv. 1 to 2 (107.5-150.5 mg/m^2) n = 9), 2 (22.2) n (%); in the data set on solid cancer patients (QOD Step 2 Dose escalation, Lv. 3 (210.7 mg/m^2) n = 6), 1 (16.7) n (%); in the data set on solid cancer patients (QOD Step 2 Dose escalation, Lv. 4 (295.0 mg/m^2) n = 5) it was 1 (16.7) n (%); with solid cancer patients (setting [7]), 3 (60.0) n (%). Besides, the “Eye disorder, G1” value in the data set with solid cancer patients (human, in vivo) is on record as 14 (23.0) n (%). The “Eye Disorder, ≥G3” value is on record as 2 (66.7) n (%) in the data set on solid cancer patients (QD Step 1 Dose escalation, Lv. 7 (150.5 mg/m^2) n = 3) and 2 (3.3) n (%) in the data set on solid cancer patients (human, in vivo). Further, the “degree of eye disorder at MTD” value in the data set with solid cancer patients (alternate-day administration group) is reported as “limited to grade 1”; in the data set with solid cancer patients (group given administration for 5 consecutive days and 2-day withdrawal period), “limited to grade 1”. Moreover, the “side effect on vision” value in the data set on solid cancer patients (phase I clinical trial, administration for consecutive days) was “caused a side effect for vision impairment”. Moreover, the “median PFS” value in data set [3] is on record as 4.4 months. For the same compound, the “elevation of the number of TUNEL-positive apoptotic cells” value with rat eye tissue (setting [8]) was “not observed”. In addition, the “histopathological change in the outer nuclear layer of the retina” value in the data set with rat eye tissue (setting [8]) is on record as “did not cause any histopathological change”. Moreover, the ocular toxicity result in the data set on rat eye tissue (setting [5]) was “without exhibiting ocular toxicity”.
